Measurements: PMC8292346, “Dysfunction of the key ferroptosis-surveilling systems hypersensitizes mice to tubular necrosis during acute kidney injury” (Nature Communications, 2021)
Values joined by “and” are separate entries in the source; they are usually repeats but may differ in a detail not shown here. Equal entries are not always repeated. “Also recorded” adds a separate entry of the source.

Experiments:
C57Bl/6 N mice = assay: Bilateral kidney ischemia-reperfusion injury, severe model (38 min ischemia), survival; settings: single dose 2 mg/kg body weight before reperfusion
NIH3T3 cells = assay: Ferroptosis inducers (FINs)/ferroptocide, 7-AAD/annexin V flow cytometry; type: cell-based, murine; settings: alone (DMSO) or with Fer-1 1 µM, Nec-1s 30 µM, Nec-1f 30 µM
Protocol: (§1) To induce necroptosis in a human cell line, HT29 cells were stimulated at the indicated time points with 20 ng/ml human TNFα (Biolegend), 1 μM SMAC-mimetics (Birinapant, Chemietek), and 20 μM zVAD-fmk (Selleckchem, herein referred to as zVAD). For the induction of necroptosis in NIH3T3 cells, cells were incubated with 20 ng/ml TNF-α and 20 μM zVAD for indicated time points. […] Cells were seeded in six-well plates or petri dishes. […] After indicated time points, cells were collected and prepared for flow cytometry, immunoblotting, and/or LDH release assays.
(§2) Cells were harvested and the pellets were washed twice in PBS and stained with 5 μl of 7-AAD (BD Biosciences) and 5 μl of annexin-V-FITC (BD Biosciences) added to 100 μl annexin-V binding buffer (BD Biosciences). After 15 min, cells were recorded on the LSRII with the FACS Diva 6.1.1 software (BD Biosciences) and subsequently analyzed with the FlowJo v10 software (Tree Star).

RIPK1 = assay: Western blot of pRIPK1 (S166) in TSZ-treated HT29 cells; type: cell-based, human; settings: Nec-1s 10 µM, Fer-1 1 µM, Nec-1f 10 µM
Protocol: as §1
(§3) Cells were lysed in ice-cold 10 mM Tris-HCl, pH 7.5, 50 mM NaCl, 1% Triton X-100, 30 mM sodium pyrophosphate, 50 mM NaF, 100 μM Na3VO4, 2 μM ZnCl2, and 1 mM phenylmethylsulfonyl fluoride (PMSF, modified Frackelton buffer) for 30 min on ice. Insoluble material was removed by centrifugation (14 000×g, 30 min, 4 °C). Protein concentration was determined using a commercial Bradford assay kit according to the manufacturer’s instructions (Thermo Fisher). Equal amounts of protein (typically 30 μg per lane) were resolved on a 4%−15% gradient SDS/PAGE gel and transferred to a PVDF membrane (BIO-RAD). Primary antibody incubation was performed for anti-pS166-RIPK1 (Cell Signaling, Cat# 65746, 1:1000 dilution), anti-pS358-MLKL, (Abcam, ab187091, 1:1000 dilution), anti-MLKL (Genetex, GTX107538, 1:1000 dilution) and anti-β-Actin (Cell Signaling, Cat# 3700S, 1:1000 dilution). Secondary antibodies (anti-mouse, HRP-linked antibody, Cell Signaling, Cat# 7076S; anti-rabbit, HRP-linked antibody, Cell Signaling, Cat# 7074S) were applied at concentrations of 1:5.000 (also see Supplementary Table 1 for details). Proteins were then visualized by enhanced chemiluminescence (ECL; Amersham Biosciences).

[1] = system: freshly isolated primary murine renal tubules; assay: RSL3-induced LDH release of freshly isolated kidney tubules; type: cell-based; settings: RSL3 2 h; for LDH release: freshly isolated kidney tubules, 5 mM glycine, alone (DMSO) or with Fer-1 or Nec-1f; for Effect on RSL3-induced LDH release: freshly isolated tubules, glycine medium
Protocol: The LDH release of cells or of freshly isolated kidney tubules was measured according to manufacturers’ instructions at indicated time points. In brief, an aliquot of the supernatant was taken and Lysis Solution was added for 45 min to induce maximal LDH release before another aliquot of the supernatant was taken. Subsequently, the supernatants were incubated with CytoTox 96® Reagent for 15 min protected from light at room temperature before adding Stop Solution. Absorbance was measured at 490 nm.
Primary murine renal tubules were isolated following a modified previously established protocol. […] Kidney slices of each kidney were transferred in 2 ml reaction tube containing 2 mg/ml collagenase type II in incubation solution (48 μg/ml trypsin inhibitor, 25 μg/ml DNAse I, 140 mM NaCl, 0.4 mM KH2PO4, 1.6 mM K2HPO4 · 3 H2O, 1 mM MgSO4 · 7 H2O, 10 mM CH3COONa · 3 H2O, 1 mM α-ketoglytarate and 1.3 mM Ca-gluconate) and digested for 5 min at 37 °C, 850 rpm. Due to the presence of damaged tubules, the first resulting supernatant was discarded and 1 ml of 2 mg/ml collagenase type II in incubation solution was added to the kidney slices and digested for 5 min at 37 °C, 850 rpm. The supernatant was collected and transferred in a 2 ml reaction tube containing 1 ml ice-cold sorting solution (0.5 mg/ml bovine albumin in incubation solution). The reaction tubes were left on ice for the tubules to precipitate. The supernatant was removed and the tubules were washed twice with ice-cold incubation solution. Once the tubules precipitated the supernatant was removed and the ice-cold sorting solution was added (the volume was adjusted depending on the number of samples needed for the experiment). Tubules were distributed in a twenty-four-well plate containing Dulbecco’s Modified Eagle Medium F-12 Nutrient Mixture without phenol red (DMEM/F12, Thermo Fisher), supplemented with 0.01 mg/ml recombinant human insulin, 5.5 μg/ml human transferrin, 0.005 μg/ml sodium selenite (Na2SeO3) (ITS without linoleic acid, Sigma Aldrich), 50 nM hydrocortisone, 100 U/ml penicillin, and 100 μg/ml streptomycin (Pen/Strep, Thermo Fisher).
All of the experiments performed contain a negative control to assess LDH release at 0 h of incubation as a quality control. No more than 10% LDH release in these negative controls was tolerated. […] Isolated murine renal tubules were placed in twenty four-well plates containing the respective agents diluted in Dulbecco’s Modified Eagle Medium F-12 Nutrient Mixture without phenol red (DMEM/F12, Thermo Fisher), supplemented with 0.01 mg/ml recombinant human insulin, 5.5 μg/ml human transferrin, 0.005 μg/ml Na2SeO3 (ITS without linoleic acid, Sigma Aldrich), 50 nM hydrocortisone, 100 U/ml penicillin, and 100 μg/ml streptomycin (Pen/Strep, Thermo Fisher). […]

MLKL = assay: Western blot of pMLKL (S358) in TSZ-treated HT29 cells; type: cell-based, human; settings: Nec-1s 10 µM, Fer-1 1 µM, Nec-1f 10 µM
Protocol: as §1, §3

HT1080 cells = assay: Ferroptosis inducers (FINs)/ferroptocide, 7-AAD/annexin V flow cytometry; type: cell-based, human; settings: for double-negative events (7-AAD/annexin V): alone (DMSO) or with Fer-1 1 µM; for double-negative events (7-AAD/annexin V) / Inhibition of cell death induction by FINs/ferroptocide: Nec-1s 30 µM, Nec-1f 30 µM; for Inhibition of cell death induction by FINs/ferroptocide: Fer-1 1 µM
[2] = system: Mouse cortical tubule cells (MCT); assay: FINs/ferroptocide, 7-AAD/annexin V flow cytometry; type: cell-based; settings: for double-negative events (7-AAD/annexin V): MCT, alone (DMSO) or with Fer-1 1 µM, Nec-1s 30 µM, Nec-1f 30 µM
Protocol: as §1, §2

| Compound | Survival after severe renal IRI vs vehicle (Kaplan-Meier, words) (C57Bl/6 N mice) | double-negative events (7-AAD/annexin V) (NIH3T3 cells; NIH3T3, 1.13 µM RSL3 6 h) | double-negative events (7-AAD/annexin V) (NIH3T3 cells; NIH3T3, 10 µM FIN56 24 h) | Phosphorylation of RIPK1 at S166, western blot (RIPK1) | LDH release [1] | Effect on RSL3-induced LDH release [1] | Phosphorylation of MLKL (pS358), western blot (MLKL) | double-negative events (7-AAD/annexin V) (HT1080 cells; HT1080, 1.13 µM RSL3 6 h) | double-negative events (7-AAD/annexin V) (HT1080 cells; HT1080, 10 µM FIN56 24 h) | double-negative events (7-AAD/annexin V) (HT1080 cells; HT1080, 10 µM FINO2 24 h) | Inhibition of cell death induction by FINs/ferroptocide (HT1080 cells; HT1080) | double-negative events (7-AAD/annexin V) ([2]; 1.13 µM RSL3 6 h) | double-negative events (7-AAD/annexin V) ([2]; 5 µM erastin 24 h) | double-negative events (7-AAD/annexin V) ([2]; 10 µM FIN56 24 h) | also measured |
| --- | --- | --- | --- | --- | --- | --- | --- | --- | --- | --- | --- | --- | --- | --- | --- |
| CCOC(=O)c1ccc(NC2CCCCC2)c(N)c1 [Fer-1, ferrostatin-1] | not statistically significant | 90.9% and 88.3% and 95.7% and 97.7% and 79% | 94.7% and 91.5% and 96.4% | RIPK1 S166 phorphorylation was increased | 22.94% and 23.84% and 16.99% | significantly attenuated | did not prevent MLKL-phosphorylation | 92.2% and 77.7% and 91.5% and 91% | 88.3% and 93.1% and 90% | 90.8% and 87.7% and 89.4% | inhibition of cell death induction | 96.6% and 93.5% and 69% | 79.5% and 84.2% and 82.8% and 86.9% | 89.5% and 93.6% and 90.5% | double-negative events (7-AAD/annexin V) (NIH3T3 cells; NIH3T3, 5 µM erastin 24 h): 93.3% and 78.4% and 95.1% and 95.2%; double-negative events (7-AAD/annexin V) (NIH3T3 cells; NIH3T3, 10 µM FINO2 24 h): 79% and 79.9% and 82.9% and 91%; double-negative events (7-AAD/annexin V) (HT1080 cells; HT1080, 5 µM erastin 24 h): 91.8% and 92.7%; double-negative events (7-AAD/annexin V) (HT1080 cells; HT1080, 10 µM ferroptocide 24 h): 71.3% and 77%; Effect on RSL3- and FINO2-induced ferroptosis ([2]; MCT cells): reversed; double-negative events (7-AAD/annexin V) ([2]; 10 µM FINO2 24 h): 96% and 77.1% and 92.8% and 95.9% and 89.7%; double-negative events (7-AAD/annexin V) ([2]; 10 µM ferroptocide 24 h): 86.2% and 85.5% and 72.2% and 89.6% and 67.8% and 73.5% |
| CN1C(=O)C(Cc2c[nH]c3c(Cl)cccc23)NC1=S (centres unmarked) [Nec-1f] | significantly higher | 88.9% and 61.8% and 72.9% and 86.1% and 70.3% and 57.8% and 80.3% | 88.1% and 87.8% and 92.6% | prevented phosphorylation at S166 in RIPK1 | 18.43% and 23.14% and 28.56% | reduction of LDH release; also recorded: significantly attenuated | prevented phosphorylation | 88% and 71.9% and 83.1% and 89.5% | 82.6% and 86.1% and 84.4% | 80.8% and 51.5% and 65.9% and 53.8% | inhibition of cell death induction | 93.7% and 87.8% and 51.4% | 79.8% and 85.4% and 81.9% and 88.8% | 93.7% and 87.9% and 91.7% | Prevention of FINO2-induced ferroptosis (HT1080 cells; HT1080): less effective; Effect on FINO2-induced death ([2]; MCT cells): failed to prevent; Effect on RSL3-induced annexin V / 7-AAD positivity ([2]; MCT cells): inhibited |
